Measurements as given in article PMC4269305, “The impact of P-gp functionality on non-steady state relationships between CSF and brain extracellular fluid” (Journal of Pharmacokinetics and Pharmacodynamics, 2013).

Tests used:
[1] = Plasma protein binding by Centrifree ultrafiltration; format: in vitro ADME; details: male, Wistar WU, rat, plasma (from dosed rats and from spiked blank blood); linear; not affected by co-administration of tariquidar
Procedure: […]. […] All blood samples were temporarily stored in heparin (10 IU) coated Eppendorf cups. […]. The spiked blood samples were then incubated in a shaking water bath at 37 °C for 30 min.
Plasma protein binding was determined with Centrifree® ultrafiltration devices (Millipore BV, Etten-Leur, the Netherlands). All procedures were performed according to the user’s manual. The ultrafiltrate was diluted ten times with saline before the analysis.

pKa and ionization = format: physicochemical
Source text: Therefore, based on our data, it appears that quinidine is also transported by other transporters at the BBB and BCSFB, in the direction of the brain. However, there is no direct information in literature to support this. […] The question remains how this relates to the in vivo situation, like ours. […] OCTs have been localized both at the BBB [66], as well as at the BCSFB [67].

Na^+-K^+-ATPase = details: cited from earlier work
P-gp = test system: P-gp; design: method as in PMID 11212278; details: cited from earlier work
[2] = design: method as in PMID 18632828, PMID 21199574; details: 15 mg/kg tariquidar; up to 3 h after administration; cited from earlier work

C=C[C@H]1C[N@@]2CC[C@H]1C[C@@H]2[C@@H](O)c1ccnc2ccc(OC)cc12 [quinidine, Quinidine]
fraction unbound at 30 min [1]: 0.135
% ionized (pKa and ionization; pH 7.3): 80%
% ionized (pKa and ionization; pH 7.4): 76%
reported IC50 for inhibition of Na+-K+-ATPase activity (Na^+-K^+-ATPase): ~ 30 μg/ml

COc1cc2c(cc1OC)CN(CCc1ccc(NC(=O)c3cc(OC)c(OC)cc3NC(=O)c3cnc4ccccc4c3)cc1)CC2 [tariquidar, Tariquidar]
half-maximum inhibition constant (IC50) for P-gp (P-gp): approximately 25 ng/ml
plasma and brain concentrations relative to the IC50 value (fold higher) [2]: over 50 -fold
